Measured values published in PubChem BioAssay (NCI).
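Step 1: Grow cells in 96-well plates. Step 2: Expose to compound for 48 hours at 5 concentrations. Step 3: Interpolate endpoints linearly; if unreached, use highest concentration. Here, GI50 denotes the concentration required for 50% inhibition of growth. At the TGI there is no net growth.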

Experiments:
Test in all cases: growth of human tumour cells (NCI), 48 h
MOLT-4 leukemia = tested on: MOLT-4 leukemia
OVCAR-3 ovarian = tested on: OVCAR-3 ovarian
OVCAR-8 ovarian = tested on: OVCAR-8 ovarian
PC-3 prostate = tested on: PC-3 prostate
SN12C renal = tested on: SN12C renal
SK-MEL-2 melanoma = tested on: SK-MEL-2 melanoma
K-562 leukemia = tested on: K-562 leukemia
HCT-116 colon = tested on: HCT-116 colon
SF-539 CNS = tested on: SF-539 CNS
TK-10 renal = tested on: TK-10 renal

Row | SMILES | GI50 (MOLT-4 leukemia) | TGI (MOLT-4 leukemia) | GI50 (OVCAR-3 ovarian) | TGI (OVCAR-3 ovarian) | GI50 (OVCAR-8 ovarian) | TGI (OVCAR-8 ovarian) | GI50 (PC-3 prostate) | TGI (PC-3 prostate) | GI50 (SN12C renal) | TGI (SN12C renal) | GI50 (SK-MEL-2 melanoma) | TGI (SK-MEL-2 melanoma) | GI50 (K-562 leukemia) | TGI (K-562 leukemia) | GI50 (HCT-116 colon) | TGI (HCT-116 colon) | TGI (SF-539 CNS) | TGI (TK-10 renal) [µM] | GI50 (SF-539 CNS) | GI50 (TK-10 renal) [µM]
1 | Nc1ncn([C@@H]2O[C@H](CO)[C@@H](O)[C@H]2O)c(=O)n1 | 3.41 µM | 32.1 µM | 1.56 µM | 3.69 µM | 0.766 µM | > 100 µM | 2.17 µM | > 100 µM | 0.594 µM | > 100 µM | 0.612 µM | 3.83 µM | 0.572 µM | > 100 µM | 0.322 µM | 1.71 µM |  |  |  | 
2 | C=CCC1(c2ccc(OC)cc2)C=CC(=O)CC1 (stereo unspecified) |  | > 100 µM |  | > 100 µM |  | > 100 µM |  | > 100 µM |  | > 100 µM |  |  |  | > 100 µM |  | > 100 µM | > 100 µM | > 100 |  | 
3 | COc1cc(N(CCC#N)CCC#N)ccc1/C(N=Nc1ccc(Cl)cc1)=N/NC(=O)c1cc(Br)ccc1O | 32.9 µg/mL | > 150 µg/mL | 50 µg/mL | > 150 µg/mL | 39 µg/mL | 108 µg/mL | 64.1 µg/mL | > 150 µg/mL | 88.4 µg/mL | > 150 µg/mL | 146 µg/mL | > 150 µg/mL | 86.4 µg/mL | > 150 µg/mL | 53.2 µg/mL | > 150 µg/mL | > 150 µg/mL |  | 73.3 µg/mL | 
4 | CNCCOC(=O)/C=C1\CC[C@H]2[C@@H]([C@@H](O)C(=O)[C@@H]3[C@]2(C)CC[C@H](O)[C@]3(C)C(=O)OC)[C@H]1C | 0.212 µM | 0.543 µM | 0.228 µM | 0.49 µM | 0.329 µM | 1.11 µM | 0.369 µM | 2.34 µM | 0.327 µM | 1.64 µM | 1.79 µM | 4.57 µM | 0.412 µM | 2.37 µM | 0.294 µM | 1.03 µM | 0.701 µM | 0.76 | 0.267 µM | 0.262
5 | N#CNC(=NCc1ccccc1)N(Cc1ccccc1)Cc1ccccc1 |  | 47.7 µM |  | > 31.6 µM |  | > 31.6 µM |  | > 100 µM |  | > 31.6 µM |  | 26.4 µM |  | > 100 µM |  | > 31.6 µM | > 31.6 µM | > 31.6 |  | 
6 | CC(=O)ON1CCCC(P(=O)(OCCSC(=O)C(C)(C)C)OCCSC(=O)C(C)(C)C)C1=O (stereo unspecified) | 0.854 µM | 11.5 µM | 1.19 µM | 20.5 µM | 0.691 µM | > 100 µM | 3.51 µM | > 100 µM | 0.36 µM | 15 µM | 4.47 µM | 40 µM | 0.674 µM | > 100 µM | 0.613 µM | 12.7 µM | 27.4 µM | 93.3 | 3.96 µM | 3.57
7 | COc1cc(Cl)cc(-c2nn(-c3cccc(NC(=O)c4ccc(N5CCOCC5)c(C(F)(F)F)c4)c3)cc2-c2ccncc2)c1 | 5.49 µM | > 100 µM | 53.1 µM | > 100 µM | 6.33 µM | > 100 µM | 3.3 µM | > 100 µM | > 100 µM | > 100 µM | 21.1 µM | > 100 µM | 3.1 µM | > 100 µM | 9.64 µM | > 100 µM | > 100 µM |  | 3.74 µM | 
